Data reported in the CheMixHub viscosity set.
“And” between values parts separate entries of the source, which are not always exact repeats. Equal values may be shown once. ± gives the uncertainty stated by the source.

Test: xn = mol fraction of the nth substance listed

`CC[N+](=O)[O-]` + CCCO showed a viscosity (293.15 K, 101.33 kPa, x2 = 0.05) of 0.686 ± 0.006 mPa·s, a viscosity (293.15 K, 101.33 kPa, x2 = 0.1) of 0.683 ± 0.006 mPa·s and a viscosity (293.15 K, 101.33 kPa, x2 = 0.1499) of 0.69 ± 0.006 mPa·s. It also gave a viscosity (293.15 K, 101.33 kPa, x2 = 0.2001) of 0.702 ± 0.006 mPa·s, a viscosity (293.15 K, 101.33 kPa, x2 = 0.25) of 0.72 ± 0.006 mPa·s and a viscosity (293.15 K, 101.33 kPa, x2 = 0.3) of 0.748 ± 0.007 mPa·s. The viscosity (293.15 K, 101.33 kPa, x2 = 0.35) was 0.776 ± 0.007 mPa·s, the viscosity (293.15 K, 101.33 kPa, x2 = 0.4) was 0.808 ± 0.007 mPa·s and the viscosity (293.15 K, 101.33 kPa, x2 = 0.45) was 0.848 ± 0.007 mPa·s. It also gave a viscosity (293.15 K, 101.33 kPa, x2 = 0.5) of 0.898 ± 0.008 mPa·s, a viscosity (293.15 K, 101.33 kPa, x2 = 0.55) of 0.951 ± 0.008 mPa·s and a viscosity (293.15 K, 101.33 kPa, x2 = 0.6) of 1.016 ± 0.009 mPa·s. For the same molecule, the viscosity (293.15 K, 101.33 kPa, x2 = 0.65) was 1.085 ± 0.009 mPa·s, the viscosity (293.15 K, 101.33 kPa, x2 = 0.7) was 1.17 ± 0.01 mPa·s and the viscosity (293.15 K, 101.33 kPa, x2 = 0.75) was 1.282 ± 0.01 mPa·s. For the same molecule, the viscosity (293.15 K, 101.33 kPa, x2 = 0.8) was 1.391 ± 0.011 mPa·s, the viscosity (293.15 K, 101.33 kPa, x2 = 0.85) was 1.539 ± 0.012 mPa·s and the viscosity (293.15 K, 101.33 kPa, x2 = 0.9) was 1.717 ± 0.014 mPa·s. For the same molecule, the viscosity (293.15 K, 101.33 kPa, x2 = 0.95) was 1.945 ± 0.015 mPa·s, the viscosity (303.15 K, 101.33 kPa, x2 = 0.05) was 0.609 ± 0.006 mPa·s and the viscosity (303.15 K, 101.33 kPa, x2 = 0.1) was 0.605 ± 0.005 mPa·s. For the same molecule, the viscosity (303.15 K, 101.33 kPa, x2 = 0.1499) was 0.607 ± 0.005 mPa·s, the viscosity (303.15 K, 101.33 kPa, x2 = 0.2001) was 0.617 ± 0.006 mPa·s and the viscosity (303.15 K, 101.33 kPa, x2 = 0.25) was 0.629 ± 0.006 mPa·s. It also gave a viscosity (303.15 K, 101.33 kPa, x2 = 0.3) of 0.647 ± 0.006 mPa·s, a viscosity (303.15 K, 101.33 kPa, x2 = 0.35) of 0.667 ± 0.006 mPa·s and a viscosity (303.15 K, 101.33 kPa, x2 = 0.4) of 0.694 ± 0.006 mPa·s. The viscosity (303.15 K, 101.33 kPa, x2 = 0.45) was 0.724 ± 0.006 mPa·s, the viscosity (303.15 K, 101.33 kPa, x2 = 0.5) was 0.758 ± 0.007 mPa·s and the viscosity (303.15 K, 101.33 kPa, x2 = 0.55) was 0.8 ± 0.007 mPa·s. For the same molecule, the viscosity (303.15 K, 101.33 kPa, x2 = 0.6) was 0.852 ± 0.007 mPa·s, the viscosity (303.15 K, 101.33 kPa, x2 = 0.65) was 0.902 ± 0.008 mPa·s and the viscosity (303.15 K, 101.33 kPa, x2 = 0.7) was 0.967 ± 0.008 mPa·s. For the same molecule, the viscosity (303.15 K, 101.33 kPa, x2 = 0.75) was 1.043 ± 0.009 mPa·s, the viscosity (303.15 K, 101.33 kPa, x2 = 0.8) was 1.133 ± 0.009 mPa·s and the viscosity (303.15 K, 101.33 kPa, x2 = 0.85) was 1.243 ± 0.01 mPa·s. It also gave a viscosity (303.15 K, 101.33 kPa, x2 = 0.9) of 1.377 ± 0.011 mPa·s, a viscosity (303.15 K, 101.33 kPa, x2 = 0.95) of 1.559 ± 0.013 mPa·s and a viscosity (313.15 K, 101.33 kPa, x2 = 0.05) of 0.544 ± 0.005 mPa·s. The viscosity (313.15 K, 101.33 kPa, x2 = 0.1) was 0.539 ± 0.005 mPa·s, the viscosity (313.15 K, 101.33 kPa, x2 = 0.1499) was 0.539 ± 0.005 mPa·s and the viscosity (313.15 K, 101.33 kPa, x2 = 0.2001) was 0.547 ± 0.005 mPa·s. The viscosity (313.15 K, 101.33 kPa, x2 = 0.25) was 0.554 ± 0.005 mPa·s, the viscosity (313.15 K, 101.33 kPa, x2 = 0.3) was 0.567 ± 0.005 mPa·s and the viscosity (313.15 K, 101.33 kPa, x2 = 0.35) was 0.581 ± 0.005 mPa·s. For the same molecule, the viscosity (313.15 K, 101.33 kPa, x2 = 0.4) was 0.609 ± 0.006 mPa·s, the viscosity (313.15 K, 101.33 kPa, x2 = 0.45) was 0.623 ± 0.006 mPa·s and the viscosity (313.15 K, 101.33 kPa, x2 = 0.5) was 0.655 ± 0.006 mPa·s. The viscosity (313.15 K, 101.33 kPa, x2 = 0.55) was 0.681 ± 0.006 mPa·s, the viscosity (313.15 K, 101.33 kPa, x2 = 0.6) was 0.718 ± 0.006 mPa·s and the viscosity (313.15 K, 101.33 kPa, x2 = 0.65) was 0.756 ± 0.007 mPa·s. The viscosity (313.15 K, 101.33 kPa, x2 = 0.7) was 0.808 ± 0.007 mPa·s, the viscosity (313.15 K, 101.33 kPa, x2 = 0.75) was 0.881 ± 0.008 mPa·s and the viscosity (313.15 K, 101.33 kPa, x2 = 0.8) was 0.947 ± 0.008 mPa·s. The viscosity (313.15 K, 101.33 kPa, x2 = 0.85) was 1.035 ± 0.009 mPa·s, the viscosity (313.15 K, 101.33 kPa, x2 = 0.9) was 1.125 ± 0.009 mPa·s and the viscosity (313.15 K, 101.33 kPa, x2 = 0.95) was 1.239 ± 0.01 mPa·s.

Work on `CCCCN` + C=C(C)C(=O)OC yielded a viscosity (303.15 K, 101 kPa, x2 = 0.1016) of 0.4525 ± 0.0055 mPa·s, a viscosity (303.15 K, 101 kPa, x2 = 0.1939) of 0.4608 ± 0.0055 mPa·s and a viscosity (303.15 K, 101 kPa, x2 = 0.3316) of 0.4724 ± 0.0056 mPa·s. The viscosity (303.15 K, 101 kPa, x2 = 0.4989) was 0.4852 ± 0.0056 mPa·s, the viscosity (303.15 K, 101 kPa, x2 = 0.5966) was 0.4921 ± 0.0057 mPa·s and the viscosity (303.15 K, 101 kPa, x2 = 0.8001) was 0.5045 ± 0.0057 mPa·s. The viscosity (303.15 K, 101 kPa, x2 = 0.9006) was 0.5097 ± 0.0057 mPa·s.

Work on `O=[N+]([O-])c1ccc(O)cc1` + CCCCCOC(C)=O yielded a viscosity (298.15 K, 101 kPa, x1 = 0.5) of 1.564 ± 0.015 mPa·s.

For `O=S(=O)([O-])[O-].[K+].[K+]` + O, the viscosity (293.65 K, 100 kPa, x1 = 0.008033) was 1.089 ± 0.03 mPa·s, the viscosity (294.15 K, 100 kPa, x1 = 0.005375) was 1.042 ± 0.028 mPa·s and the viscosity (294.15 K, 100 kPa, x1 = 0.01069) was 1.109 ± 0.03 mPa·s and 1.108 ± 0.03 mPa·s. The viscosity (298.15 K, 100 kPa, x1 = 5e-05) was 0.8905 ± 0.0073 mPa·s, the viscosity (298.15 K, 100 kPa, x1 = 0.0001) was 0.891 ± 0.0073 mPa·s and the viscosity (298.15 K, 100 kPa, x1 = 0.00021) was 0.892 ± 0.0073 mPa·s. It also gave a viscosity (298.15 K, 100 kPa, x1 = 0.00031) of 0.893 ± 0.0073 mPa·s, a viscosity (298.15 K, 100 kPa, x1 = 0.00104) of 0.9247 ± 0.0075 mPa·s and a viscosity (298.15 K, 101 kPa, x1 = 0.00655) of 0.966 ± 0.054 mPa·s. For the same molecule, the viscosity (298.15 K, 101 kPa, x1 = 0.01242) was 1.039 ± 0.016 mPa·s, the viscosity (303.15 K, 101 kPa, x1 = 0.01242) was 0.9548 ± 0.015 mPa·s and the viscosity (308.15 K, 100 kPa, x1 = 5e-05) was 0.7195 ± 0.0061 mPa·s. It also gave a viscosity (308.15 K, 100 kPa, x1 = 0.0001) of 0.72 ± 0.0061 mPa·s, a viscosity (308.15 K, 100 kPa, x1 = 0.00021) of 0.721 ± 0.0061 mPa·s and a viscosity (308.15 K, 100 kPa, x1 = 0.00031) of 0.722 ± 0.0061 mPa·s. The viscosity (308.15 K, 100 kPa, x1 = 0.00104) was 0.7509 ± 0.0062 mPa·s, the viscosity (308.15 K, 101 kPa, x1 = 0.01242) was 0.8705 ± 0.014 mPa·s and the viscosity (313.15 K, 101 kPa, x1 = 0.01242) was 0.7905 ± 0.014 mPa·s. For the same molecule, the viscosity (318.15 K, 101 kPa, x1 = 0.01242) was 0.7249 ± 0.013 mPa·s, the viscosity (323.15 K, 101 kPa, x1 = 0.00318) was 0.576 ± 0.028 mPa·s and the viscosity (323.15 K, 101 kPa, x1 = 0.00655) was 0.603 ± 0.03 mPa·s. For the same molecule, the viscosity (323.15 K, 101 kPa, x1 = 0.0113) was 0.645 ± 0.032 mPa·s.

For `CCCCN` + CCC(C)=O, the viscosity (303.15 K, 101.33 kPa, x1 = 0.0943) was 0.482 ± 0.013 mPa·s, the viscosity (303.15 K, 101.33 kPa, x1 = 0.181) was 0.593 ± 0.016 mPa·s and the viscosity (303.15 K, 101.33 kPa, x1 = 0.2823) was 0.732 ± 0.02 mPa·s. For the same molecule, the viscosity (303.15 K, 101.33 kPa, x1 = 0.4616) was 0.924 ± 0.025 mPa·s, the viscosity (303.15 K, 101.33 kPa, x1 = 0.5768) was 0.967 ± 0.027 mPa·s and the viscosity (303.15 K, 101.33 kPa, x1 = 0.674) was 0.914 ± 0.025 mPa·s. It also gave a viscosity (303.15 K, 101.33 kPa, x1 = 0.7814) of 0.819 ± 0.023 mPa·s and a viscosity (303.15 K, 101.33 kPa, x1 = 0.891) of 0.671 ± 0.019 mPa·s.

`CC[N+](=O)[O-]` + c1ccccc1 gave a viscosity (293.15 K, 101.33 kPa, x1 = 0.0901) of 0.628 ± 0.006 mPa·s, a viscosity (293.15 K, 101.33 kPa, x1 = 0.1956) of 0.611 ± 0.006 mPa·s and a viscosity (293.15 K, 101.33 kPa, x1 = 0.2856) of 0.602 ± 0.006 mPa·s. It also gave a viscosity (293.15 K, 101.33 kPa, x1 = 0.3897) of 0.595 ± 0.006 mPa·s, a viscosity (293.15 K, 101.33 kPa, x1 = 0.4893) of 0.594 ± 0.006 mPa·s and a viscosity (293.15 K, 101.33 kPa, x1 = 0.5827) of 0.597 ± 0.006 mPa·s. The viscosity (293.15 K, 101.33 kPa, x1 = 0.6952) was 0.608 ± 0.006 mPa·s, the viscosity (293.15 K, 101.33 kPa, x1 = 0.7869) was 0.622 ± 0.006 mPa·s and the viscosity (293.15 K, 101.33 kPa, x1 = 0.879) was 0.644 ± 0.007 mPa·s.

With `O=C(O)C(Cl)(Cl)Cl` + CCCCCOC(C)=O the viscosity (323.15 K, 101 kPa, x2 = 0.2135) was 3.573 ± 0.047 mPa·s, the viscosity (323.15 K, 101 kPa, x2 = 0.4325) was 2.146 ± 0.028 mPa·s and the viscosity (323.15 K, 101 kPa, x2 = 0.6234) was 1.358 ± 0.018 mPa·s. The viscosity (323.15 K, 101 kPa, x2 = 0.8421) was 0.807 ± 0.011 mPa·s.
